The source made the active and inactive calls. The rule behind the calls is not given here.
Legend:
[1] = target: T1, Nuclear receptor ROR-alpha (Mus musculus) (UniProt P51448); assay: Agonist activity at RORalpha in mouse NIH3T3 cells at 1 to 1000 uM incubated for 24 hrs by luminescence based assay; assay type: cell-based; conditions: dose 1-1000 µM
T1 sequence (whole entry): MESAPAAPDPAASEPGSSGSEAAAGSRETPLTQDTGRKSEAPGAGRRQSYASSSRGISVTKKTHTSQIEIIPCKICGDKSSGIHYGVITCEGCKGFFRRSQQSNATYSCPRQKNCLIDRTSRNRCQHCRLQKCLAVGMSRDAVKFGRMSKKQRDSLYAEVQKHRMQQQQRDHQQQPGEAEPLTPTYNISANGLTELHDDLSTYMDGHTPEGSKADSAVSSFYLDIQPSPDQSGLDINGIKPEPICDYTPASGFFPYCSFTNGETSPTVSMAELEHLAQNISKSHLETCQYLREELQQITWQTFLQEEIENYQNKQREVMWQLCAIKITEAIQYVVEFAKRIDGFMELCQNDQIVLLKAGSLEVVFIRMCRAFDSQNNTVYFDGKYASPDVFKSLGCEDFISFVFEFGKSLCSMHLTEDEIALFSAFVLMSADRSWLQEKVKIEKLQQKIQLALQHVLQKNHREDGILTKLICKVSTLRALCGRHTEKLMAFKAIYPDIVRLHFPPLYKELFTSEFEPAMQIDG

Sarcoma-180 [2] = assay: (§1) Elongation of circadian rhythms in dexamethasone-induced mouse Sarcoma-180 cells assessed as increase in Bmal1 period time at 5 uM measured for 1 mins at 10 min interval up to 96 hrs by bioluminescence based Bmal1 promoter-reporter gene assay (reference value: 25.70 +/- 0.30 hrs); assay type: functional; conditions: time hrs <=96
Sarcoma-180 [3] = assay: Cytotoxicity against mouse Sarcoma-180 cells assessed as reduction in cell proliferation by measuring growth rate at 1 uM measured after 3 days by WST-8 assay relative to control; assay type: functional
Sarcoma-180 [4] = assay: Cytotoxicity against mouse Sarcoma-180 cells assessed as reduction in cell proliferation at 1 uM measured up to 5 days by WST-8 assay; assay type: functional, cell-based; conditions: time day <=5
MEF [5] = assay: as §1, with “embryonic fibroblasts expressing PER2-luc gene” for “Sarcoma-180 cells”, “PER2” for “Bmal1”, “1” for “5”, “23.17” for “25.70”, “0.10” for “0.30”; assay type: functional; conditions: time hrs <=96
[6] = target: T2, Nuclear receptor ROR-alpha (Mus musculus, UniProt P51448); assay: Inverse agonist activity at RORalpha in mouse NIH3T3 cells incubated for 24 hrs by luminescence based assay; assay type: cell-based
T2 sequence (P51448 whole entry): T1 sequence (whole entry)

Sarcoma-180 [7] = assay: Transcriptional upregulation of Bmal1 mRNA expression in dexamethasone-induced mouse Sarcoma-180 cells at 1 uM measured after 24 hrs by RT-qPCR analysis relative to control; assay type: functional
Sarcoma-180 [8] = assay: Cytotoxicity against mouse Sarcoma-180 cells assessed as reduction in cell proliferation at 5 uM measured up to 5 days by WST-8 assay; assay type: functional, cell-based; conditions: time day <=5
NIH3T3 [9] = assay: Transcriptional upregulation of […] mRNA expression in dexamethasone-induced mouse NIH3T3 cells at 15 uM measured after 24 hrs by qPCR analysis relative to control; assay type: functional
MEF [10] = assay: as §1, with “embryonic fibroblasts expressing PER2-luc gene” for “Sarcoma-180 cells”, “PER2” for “Bmal1”, “1.67” for “5”, “23.17” for “25.70”, “0.10” for “0.30”; assay type: functional; conditions: time hrs <=96
Sarcoma-180 [11] = assay: Elongation of circadian rhythms in dexamethasone-induced mouse Sarcoma-180 cells assessed as increase in Bmal1 period length at 1 to 5 uM measured for 1 mins at 10 min interval up to 96 hrs by bioluminescence based Bmal1 promoter-reporter gene assay; assay type: functional, cell-based; conditions: dose 1-5 µM, time hrs <=96
NIH3T3 [12] = assay: Transcriptional upregulation of Bmal1 mRNA expression in dexamethasone-induced mouse NIH3T3 cells at 1 uM measured after 24 hrs by RT-qPCR analysis relative to control; assay type: functional
[13] = Induction of Bmal1 promotor activity in dexamethasone-induced mouse NIH3T3 cells transfected with Bmal1 promotor-reporter plasmids at 5 uM measured after 24 hrs by bioluminescence assay relative to control; assay type: functional
NIH3T3 [14] = assay: Transcriptional upregulation of Bmal1 mRNA expression in dexamethasone-induced mouse NIH3T3 cells at 5 uM measured after 24 hrs by RT-qPCR analysis relative to control; assay type: functional
NIH3T3 [15] = assay: Elongation of circadian rhythms in dexamethasone-induced mouse NIH3T3 cells assessed as increase in Bmal1 period time at 5 uM measured for 1 mins at 10 min interval up to 96 hrs by dual luciferase reporter gene assay (reference value: 25.02 +/- 0.15 hrs); assay type: functional; conditions: time hrs <=96
NIH3T3 [16] = assay: Transcriptional upregulation of Rora mRNA expression in dexamethasone-induced mouse NIH3T3 cells at 5 uM measured after 24 hrs by qPCR analysis relative to control; assay type: functional
NIH3T3 [17] = assay: Transcriptional upregulation of […] mRNA expression in dexamethasone-induced mouse NIH3T3 cells at 5 uM measured after 24 hrs by qPCR analysis relative to control; assay type: functional
Sarcoma-180 [18] = assay: Transcriptional upregulation of Bmal1 mRNA expression in dexamethasone-induced mouse Sarcoma-180 cells at 5 uM measured after 24 hrs by RT-qPCR analysis relative to control; assay type: functional
MEF [19] = assay: as §1, with “embryonic fibroblasts expressing PER2-luc gene” for “Sarcoma-180 cells”, “PER2” for “Bmal1”, “25” for “5”, “23.17” for “25.70”, “0.10” for “0.30”; assay type: functional; conditions: time hrs <=96
[20] = Induction of Bmal1 promotor activity in dexamethasone-induced mouse NIH3T3 cells transfected with Bmal1 promotor-reporter plasmids at 15 uM measured after 24 hrs by bioluminescence assay relative to control; assay type: functional
NIH3T3 [21] = assay: Elongation of circadian rhythms in dexamethasone-induced mouse NIH3T3 cells assessed as increase in Bmal1 period time at 1 uM measured for 1 mins at 10 min interval up to 96 hrs by dual luciferase reporter gene assay (reference value: 25.02 +/- 0.15 hrs); assay type: functional; conditions: time hrs <=96
Sarcoma-180 [22] = assay: Elongation of circadian rhythms in dexamethasone-induced mouse Sarcoma-180 cells assessed as increase in Bmal1 period length measured for 1 mins at 10 min interval up to 96 hrs by bioluminescence based Bmal1 promoter-reporter gene assay; assay type: functional, cell-based; conditions: dose 1-5 µM, time hrs <=96
MEF [23] = assay: as §1, with “embryonic fibroblasts expressing PER2-luc gene” for “Sarcoma-180 cells”, “PER2” for “Bmal1”, “23.17” for “25.70”, “0.10” for “0.30”; assay type: functional; conditions: time hrs <=96
NIH3T3 [24] = assay: Transcriptional upregulation of Rora mRNA expression in dexamethasone-induced mouse NIH3T3 cells at 15 uM measured after 24 hrs by qPCR analysis relative to control; assay type: functional

SMILES: CC(C)CCC[C@@H](C)[C@H]1CC[C@H]2C3=CC=C4C[C@@H](O)CC[C@]4(C)[C@H]3CC[C@]12C
- Activity ([1]; filed as agonist): Active

SMILES: CC1=C(CO)C(=O)O[C@@H]([C@@H](C)[C@H]2CC[C@H]3[C@@H]4C[C@H]5O[C@]56[C@@H](O)C=CC(=O)[C@]6(C)[C@H]4CC[C@]23C)C1
- Activity (Sarcoma-180 [2]): Active
- Activity (Sarcoma-180 [3]; time 3.0 day): Active
- Activity [1]: inactive
- Activity (Sarcoma-180 [4]): Active

SMILES: CO[C@H]1CC(=O)[C@]2(C)[C@H]3CC[C@]4(C)[C@@H]([C@H](C)[C@H]5CC(C)=C(CO)C(=O)O5)CC[C@H]4[C@@H]3C[C@H]3O[C@]32[C@H]1O
- Time (Sarcoma-180 [2]): 31.7 h
- Time (MEF [5]): 22.98 h
- IC50 [6]: 11.3 µM
- fold change (FC) (Sarcoma-180 [7]): 1.34
- Activity (Sarcoma-180 [8]): Active
- Activity (Sarcoma-180 [3]; time 3 day): 59.8%
- fold change (FC) (NIH3T3 [9]): 1.57
- Time (MEF [10]): 24.17 h
- Activity (Sarcoma-180 [11]): Active
- Activity (NIH3T3 [12]): 1.43 fold change
- fold change (FC) [13]: 1.32
- Activity (NIH3T3 [14]): 1.75 fold change
- Time (NIH3T3 [15]): 26.06 h
- fold change (FC) (NIH3T3 [16]): 1.61
- fold change (FC) (NIH3T3 [17]): 1.2
- fold change (FC) (Sarcoma-180 [18]): 2.13
- Time (MEF [19]): 26.11 h
- Activity (Sarcoma-180 [4]): Active
- fold change (FC) [20]: 1.83
- Time (NIH3T3 [21]): 25.01 h
- Activity (Sarcoma-180 [22]): Dose-Dependent Effect
- Time (MEF [23]): 25.36 h
- fold change (FC) (NIH3T3 [24]): 1.68

Source: ChEMBL document CHEMBL4825704, “Withanolide Derivative 2,3-Dihydro-3β-methoxy Withaferin-A Modulates the Circadian Clock via Interaction with RAR-Related Orphan Receptor α (RORa)” (J Nat Prod, 2021)
